From patent US8394355B2, “Use of UTP for the diagnosis of stenoses and other conditions of restricted blood flow” (P2 science Aps, priority 2009, dated 2013)
Where “and” joins values, the source holds several entries; their conditions need not be identical. Identical values can stand only once. Like-named read-outs stand apart in the source and are kept apart here.

Legend:
Assay type in all cases: in vivo
[1] = test system: pulmonary and systemic circulation of healthy female pigs; assay: Systemic (central intravenous) nucleotide infusion in pigs, hemodynamic response; details: for increase in CO (cardiac output): FIG. 7b; for increase in HR from baseline: FIG. 7c; for decrease in SV (stroke volume): FIG. 7d; for MAP lowered by, from baseline: p<0.05, FIG. 7a; for decrease in PVR (pulmonary vascular resistance) from baseline: pig, in vivo
Procedure: In the present study, the hemodynamic response in the pulmonary and systemic circulation was tested, as well as the effect of central intravenous infusions of ATP, ADP, ADO, and UTP on the heart.
Infusion rates were aimed at exerting a pronounced systemic response in the lowering of arterial blood pressure, but avoiding a total circulatory collapse.
Methods: 10 healthy female pigs (Department of Experimental Medicine and Surgery, University of Copenhagen, Denmark) bred as a combination of the Danish Landrace (⅓) and Yorkshire (⅔), with a medium weight of 41±2 kg were investigated.
Mean arterial blood pressure (MAP) was obtained from the catheter in arcus aorta with the transducer (Pressure Monitoring Kit, Baxter, Deerfield, Ill., USA) positioned at the level of the heart. The left femoral artery was subsequently exposed and an ultrasound doppler probe attached for peripheral femoral artery flow measurements (CM-4000, Cardiomed, Norway). MAP, HR and peripheral flow were monitored and data continuously collected using a PowerLab system (Adinstruments, Australia). Cardiac Output (CO) was determined in triplicates by thermodilution, following an injection of 10 ml of cooled saline solution. Blood samples were withdrawn from catheters in aorta and the right atrium at baseline and at steady state when MAP had decreased maximally or by ˜50%. Calculated variables were: stroke volume of the heart (SV=CO/HR), pulmonary vascular resistance (PVR=(MPAP−PCWP)/CO), systemic vascular resistance (SVR=(MAP−MRAP)/CO), leg vascular conductance (LVC=LBF/(MAP−MRAP)), and arterial (aorta) and mixed venous (pulmonary artery) oxygen content (Hb*1.34*O2 saturation). In the calculation of LVC, MRAP was used as an estimate of mean femoral venous pressure (MFVP), as MRAP was found in a series of measurements to equal MFVP, as estimated in 10 supine pigs. As a potential estimate for myocardial oxygen demand the rate pressure product (RPP=MAP*HR) was also calculated.
Drug infusions: Each animal was administered the nucleotides ATP, UTP, ADP (Sigma, St. Louis, Mo., USA) and ADO (Item Development AB, Stocksund, Sweden), through the internal jugular vein in the right atrium, in random order following blinded allocation. The nucleotides and ADO were prepared by dissolving in saline so as to achieve the target concentration of ATP (40±0.5 μmol/min), ADP (43±8 μmol/min), UTP (up to 1,600 μmol/min), and ADO (73±7 μmol/min). The nucleotides were infused in increasing dosages at 2 min intervals aiming at reducing MAP by maximally ˜50%. Thereafter, that specific infusion rate was maintained for ˜3-5 min. After each intervention the animal rested for ˜30 min, allowing resting cardiovascular variables to be reestablished. Thereafter, a new cycle of nucleotide infusion was administered. In the present study we aimed to allow the drugs to reduce MAP by ˜50%, but without inducing a hemodynamic and circulatory collapse, to simulate a pronounced state of systemic vasodilation, as may be observed for instance in a shock condition.

[2] = test system: coronary arteries in humans with coronary artery disease; assay: FFR during continuous intracoronary infusion via guiding catheter (Example 2); set-up: key: FFR = Pd/Pa (distal/proximal coronary pressure ratio); details: Example 5 summary; Ttest 0.0034 adenosine vs UTP
[3] = Kinetics of UTP in the circulation; details: for half-life: in the circulation, read-out: terminal half-life (converted)
[4] = test system: infarct area during acute myocardial infarction; assay: ADP or UTP infusion during myocardial infarction in pigs (unpublished); details: infused during acute myocardial infarction, unpublished results
Excerpt: This is clearly in contrast to previous findings, but is more clinically relevant as most cardiac patients are older. […] This conclusion is also supported by another study by the present inventor in pigs where ADP or UTP was infused during myocardial infarction. […] Therefore, the previous assumptions in patent application WO 2007/065437 relating to the regulation of purinergic receptor activity to modulate vascular tone, particularly for treating hemodynamic conditions by overriding vasoconstriction activity, which could potentially have clinical applications for treatment with UTP agonists or antagonists, is incorrect.

| Structure (SMILES) | increase in CO (cardiac output) [1] | increase in HR from baseline [1] | decrease in SV (stroke volume) [1] | decrease in LBF (leg blood flow) from baseline ([1]; p<0.05) [%] | decrease in SVR (systemic vascular resistance) from baseline ([1]; p<0.05) [%] | increase in LVC (leg vascular conductance) from baseline ([1]; p<0.05) | MAP lowered by, from baseline [1] [%] | increase in LVC (leg vascular conductance) from baseline ([1]; p<0.05, listed as ADO) [%] | decrease in PVR (pulmonary vascular resistance) from baseline [1] | infusion rate at target MAP ([1]; target ~50% reduction in baseline MAP, right atrium infusion) [µmol/min] | FFR Mean [2] | arrhythmias (missed beats, VT, SVT or AV nodal block) ([1]; intravenous systemic infusion) | infusion rate giving the ~35% reduction in MAP ([1]; maximal MAP reduction obtainable with UTP) [µmol/min] | increase in LBF (leg blood flow) ([1]; p<0.05, FIG. 6c) | decrease in rate pressure product ([1]; tendency) [%] | half-life ([3]; blood (the circulation)) [s] | time to peak ([3]; in vivo) [s] | half-life ([3]; in vivo) [s] | effect on infarct area [4] |
| --- | --- | --- | --- | --- | --- | --- | --- | --- | --- | --- | --- | --- | --- | --- | --- | --- | --- | --- | --- |
| Nc1ncnc2c1ncn2[C@@H]1O[C@H](CO)[C@@H](O)[C@H]1O [adenosine] | 31.4±9.9% | did not increase | did not significantly change SV | 19.4±10.7 | 59.0±3.0 | ~50% | 47.2±1.5 | 56.4±12.9 | 34.3±2.6% | 72.7 ± 6.6 | 0.77 | – | – | – | – | – | – | – | – |
| O=c1ccn([C@@H]2O[C@H](COP(=O)(O)OP(=O)(O)OP(=O)(O)O)C(O)[C@@H]2O)c(=O)[nH]1 (stereo partly drawn) [UTP, Uridine 5-triphosphate] | 72.5±15.2% and ~70% | 51.1±9.0% | did not significantly change SV | – | 62.9±2.6 | 150.0±17.1% and ~150% | 35.0±3.2 | – | did not significantly alter | – | 0.72 | does not produce arrhythmias | 86.5 ± 18.2 | 53.7±17.8% and ~50% | ~10 | ~20 | 5 | 20 | increased the infarct area |
